Source: publication PMC1082716, “Blockade of chemokine-induced signalling inhibits CCR5-dependent HIV infection in vitro without blocking gp120/CCR5 interaction” (Retrovirology, 2005)
“Also recorded” adds a separate entry of the source.

Columns and labels:
chemokine receptors = details: ref [27]; cited from earlier work
HIV (IIIb) [1] = experiment: HIV (IIIb) infection of Jurkat T-cells, p24gag immunofluorescence; format: cell-based; details: Peptide 3 100 μM, approximately 48 h after infection
Description: (§1) HIV infection of Jurkat T-cells was also monitored by high sensitivity quantitative immunofluoresence detection of viral p24^gag expression. Jurkat cells were infected with HIV in the presence or absence of Peptide 3 (100 μM) or SDF1α (100 ng/ml) as described above. Approximately 48 h after infection, the cells were attached to glass slides using a cytospin and then fixed by immersion in ice-cold 70% ethanol for 90 seconds. Expression of p24^gag was determined using quantitative immunofluoresence as previously described, except that the primary antibody was post-fixed to the section using paraformaldehyde to increase the sensitivity of the technique (see Methods). Viral infectivity was expressed as the number of cells stained for p24^gag expressed as a proportion of the total number of cells (detected using Hoechst 33342 nuclear dye). […]
Jurkat cells following HIV infection were attached to 8-well chamber slides (Becton-Dickinson) by spinning the slides using a plate rotor in a Labofuge centrifuge (Heraeus) at 3,000 × g for 5 minutes. […] A threshold was then applied to each image which was the lowest threhold that detected <1% of the pixels of an image of uninfected cells stained under identical conditions. The number of objects exceeding this threshold in each field of view were counted. […]

[2] = tested on: SDF-1α induced chemotaxis; experiment: SDF-1α induced chemotaxis (ChemoTx transwell); format: cell-based; details: 100 ng/ml SDF1α; various concentrations of inhibitor in both compartments; 5 × 10^4 cells per well; 2 h, 37°C; MTT; triplicate
Description: Figure 2 Effect of Peptide 3 on gp120:V3 loop peptide binding to cells. (a) The binding of 100 μM N-terminal biotinylated gp120:V3(IIIb) to THP-1 cells was measured in the presence of various concentrations of peptide 3. […] (b) Chemotaxis in response to 100 ng/ml SDF1α was measured in the presence of various concentrations of peptide 3. […] (e) As for (a) except that the effect of Peptide 3 on the binding of gp120:V3(BaL) to THP-1 cells was determined. (f) As for (b) except that the effect of Peptide 3 on chemotaxis induced by 25 ng/ml MIP1α was determined. All binding reactions were performed with 10^6 cells in 100 μl of binding medium at 4°C. Chemotaxis assays were performed with 5 × 10^4 cells per well. Values are mean ± SEM of triplicate determinations.
Chemotaxis experiments were performed essentially as previously described, using the ChemoTx disposable 96-well transwell migration plates, with PVP-free membrane (6 μm pore size). Chemoattractant (lower compartment) and cells upper compartment) were suspended in Gey's Balanced salt solution + 1 mg/ml BSA. […] Migration was allowed to proceed for 2 hours at 37°C. […] Each condition was determined in triplicate, and the number of cells migrating in the absence of chemoattractant was subtracted to determine the chemokine-dependent chemotaxis which was reported.

[3] = tested on: CXCR4-dependent infection of Jurkat T cells; experiment: CXCR4-dependent HIV infection of Jurkat T cells (assay not specified); format: cell-based, HIV-1
Description: HIV infection of Jurkat T-cells using the laboratory-adapted T-tropic isolate IIIb was monitored using two different assays. Firstly, Jurkat T-cells in 96-well plates were pre-treated with either Peptide 3, vehicle (as a negative control) or SDF1α (as a positive control) for 4 hours, then exposed to HIV virus (10^6 TCID50) and pulsed at 2–3 day intervals with Peptide 3, SDF1α or medium alone as appropriate. After two weeks in culture, the extent of viral infection was assayed by measuring the reverse transcriptase activity in the supernatant, as a measure of viral replication in the culture In six separate experiments, Peptide 3 (100 μM) had no effect on virus replication following HIV exposure (Fig 3a), while SDF1α inhibited reverse transcriptase activity by an average of 75%. […]
as §1, with “Jurkat cells were infected with HIV in the presence or absence of Peptide 3 (100 μM) or SDF1α (100 ng/ml) as described above. Approximately 48 h after infection, the cells were attached to glass slides using a cytospin and then fixed by immersion in ice-cold 70% ethanol for 90 seconds.” left out

HIV (IIIb) [4] = experiment: HIV (IIIb) replication in Jurkat T-cells, supernatant reverse transcriptase activity; format: cell-based; details: HIV-1 IIIb 10^6 TCID50; Peptide 3 100 μM; two weeks; six separate experiments
Description: HIV infection of Jurkat T-cells using the laboratory-adapted T-tropic isolate IIIb was monitored using two different assays. Firstly, Jurkat T-cells in 96-well plates were pre-treated with either Peptide 3, vehicle (as a negative control) or SDF1α (as a positive control) for 4 hours, then exposed to HIV virus (10^6 TCID50) and pulsed at 2–3 day intervals with Peptide 3, SDF1α or medium alone as appropriate. After two weeks in culture, the extent of viral infection was assayed by measuring the reverse transcriptase activity in the supernatant, as a measure of viral replication in the culture In six separate experiments, Peptide 3 (100 μM) had no effect on virus replication following HIV exposure (Fig 3a), while SDF1α inhibited reverse transcriptase activity by an average of 75%. No effect was seen on cell viability under any of the treatment conditions.
HIV-1 stocks were prepared in the following manner. HIV-1 IIIb (provided by the MRC AIDS Reagent Programme) was used to infect Jurkat T cells and the progression of infection was monitored using the reverse transcriptase assay for 10–14 days. […] Stocks of HIV-1 MN strain were prepared in a similar manner, except that H9 T cells were used and the progression of infection was monitored by immunofluoresence (because of the low RT activity) in this strain. […]

EICADPKQKWVQ [Peptide 3]
Effect on binding of chemokine ligands to the receptors (chemokine receptors): do not block | Effect on viral infectivity (p24gag, in words) (HIV (IIIb) [1]): no effect | Effect on SDF-1α induced chemotaxis [2]: powerfully inhibited; also recorded: efficiently blocks | Effect on CXCR4-dependent HIV infection of Jurkat T cells [3]: did not affect; also recorded: no effect | Effect on virus replication following HIV exposure (reverse transcriptase activity) (HIV (IIIb) [4]): no effect
